Test results reported in PubChem BioAssay (NCI).
Values joined by “and” are separate entries in the source; they are usually repeats but may differ in a detail not shown here. Equal entries are not always repeated.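 Where inhibition never reached the appropriate level, the endpoint shown equals the highest concentration tested. Otherwise, values were interpolated linearly from a five-concentration, 48-hour dose response in 96-well plates. Abbreviation: GI50, concentration required for 50% inhibition of growth. TGI: total growth inhibition.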

Assays:
Experiment in all cases: NCI anticancer screen, dose series, 48 h
T-47D breast = tested on: T-47D breast
M19-MEL melanoma = tested on: M19-MEL melanoma
KM20L2 colon = tested on: KM20L2 colon
DLD-1 colon = tested on: DLD-1 colon
DMS 114 small cell lung = tested on: DMS 114 small cell lung
DMS 273 small cell lung = tested on: DMS 273 small cell lung
LXFL 529 NSCLC = tested on: LXFL 529 NSCLC
MDA-N = tested on: MDA-N
RXF-631 renal = tested on: RXF-631 renal

With `O=S(=O)(Nc1ccc(Br)cc1)c1ccc(-c2cnc(C3CC3)o2)cc1` the GI50 (T-47D breast) was 2.84 µM and the TGI (T-47D breast) was 16.9 µM.

In the case of `CCN1C(=O)N(CC)C2C1NN=c1s/c(=C\c3ccc(Cl)cc3Cl)c(=O)n12` (centres undefined), the GI50 (T-47D breast) is reported as 15.7 µM and the TGI (T-47D breast) is reported as 99.3 µM.

In the case of `O=C1CC(CC(=O)C2CCCCC2=O)C(=O)N1` (centres undefined), the TGI (M19-MEL melanoma) is reported as over 100 µM, the TGI (KM20L2 colon) is reported as over 100 µM and the TGI (DLD-1 colon) is reported as over 100 µM. The TGI (DMS 114 small cell lung) was over 100 µM, the TGI (DMS 273 small cell lung) was over 100 µM and the TGI (LXFL 529 NSCLC) was over 100 µM.

`C1CSCCCSCCCSCCCSCCCSCCCSCCCSCCCSC1` gave a TGI (T-47D breast) of over 100 µM and a TGI (MDA-N) of over 100 µM.

`C/C=C/C(C#N)O[Si](C)(C)C` (centres undefined) showed a TGI (M19-MEL melanoma) of over 100 µM, a TGI (KM20L2 colon) of over 100 µM and a TGI (DLD-1 colon) of over 100 µM. For the same compound, the TGI (DMS 114 small cell lung) was over 100 µM, the TGI (DMS 273 small cell lung) was over 100 µM and the TGI (LXFL 529 NSCLC) was over 100 µM.

Compound `Cc1c(OC(C)C(=O)O)ccc2c(-c3ccccc3)cc(=O)oc12` (centres undefined) has a TGI (M19-MEL melanoma) of over 100 µM, a TGI (KM20L2 colon) of over 100 µM and a TGI (DLD-1 colon) of over 100 µM. The TGI (DMS 114 small cell lung) was over 100 µM, the TGI (RXF-631 renal) was over 100 µM and the TGI (LXFL 529 NSCLC) was over 100 µM.

In the case of `C[C@@H](NC(C#N)c1ccco1)c1ccccc1` (some centres undefined), the TGI (T-47D breast) is reported as over 100 µM and the TGI (MDA-N) is reported as over 100 µM.

In the case of `c1ccc(-c2nc(-c3ccccn3)nc(-c3ccccn3)n2)nc1`, the GI50 (T-47D breast) is reported as 7.85 µM and the TGI (T-47D breast) is reported as over 100 µM.

Compound `N#C[Se]Cc1cc(-c2ccccc2)n(-c2ccc(S(N)(=O)=O)cc2)n1` has a GI50 (T-47D breast) of 2.19 µM and a TGI (T-47D breast) of 7.28 µM.

Compound `Cc1ccc2cnc(N)c(C#Cc3cc(C(=O)Nc4ccc(CN5CCN(C)CC5)c(C(F)(F)F)c4)cnc3C)c2c1` has a GI50 (T-47D breast) of 9.23 µM and a TGI (T-47D breast) of 36.7 µM.

For `Cn1ncc(-c2ccc3c(=O)[nH]nc(CN)c3c2)c1-c1c(F)c(Cl)cc(OC2CC2)c1C#N`, the GI50 (T-47D breast) was 12.3 µM and 6.06 µM and the TGI (T-47D breast) was 36.5 µM and 28.4 µM.

For `N=C1C(O)C2(I)c3ccccc3N3C(=N)C(O)C4c5ccccc5N1C4C32` (centres undefined), the TGI (T-47D breast) was over 100 µM and the TGI (MDA-N) was over 100 µM.

`O=C1OCC2=C1C(c1cccc(F)c1)c1cc3c(cc1N2CCO)OCO3` (centres undefined) gave a GI50 (T-47D breast) of 2.18 µM and a TGI (T-47D breast) of over 50 µM.

With `O=C(NCCCOC(=O)CCCCCCCCC(=O)OCCCNC(=O)NC(=O)c1c[nH]c(=O)[nH]c1=O)NC(=O)c1c[nH]c(=O)[nH]c1=O` the TGI (M19-MEL melanoma) was over 100 µM, the TGI (KM20L2 colon) was over 100 µM and the TGI (DLD-1 colon) was over 100 µM. For the same compound, the TGI (DMS 273 small cell lung) was over 100 µM, the TGI (RXF-631 renal) was over 100 µM and the TGI (LXFL 529 NSCLC) was over 100 µM.

With `Nc1ncn([C@@H]2S[C@H](CO)[C@@H](O)[C@@H]2F)c(=O)n1` the GI50 (T-47D breast) was over 100 µM and the TGI (T-47D breast) was over 100 µM.

With `COc1cc(C)ccc1C(=O)c1ccc(C)cc1OC` the GI50 (T-47D breast) was 4.67 µM and the TGI (T-47D breast) was over 100 µM.

Work on `CC(C)=CCN1c2ccccc2NC(=O)CC1C` (centres undefined) yielded a TGI (T-47D breast) of over 100 µM.

In the case of `CCOc1ccccc1CCN=C1NC(=O)/C(=C/c2ccc3ncccc3c2)S1`, the GI50 (T-47D breast) is reported as 1.46 µM and the TGI (T-47D breast) is reported as over 25 µM.

For `CC(=O)c1c(O)c(C)c(O)c(Cc2c(O)c3c(c(C(=O)/C=C/c4ccccc4)c2O)OC(C)(C)C=C3)c1O`, the TGI (T-47D breast) was 7.89 µM and the TGI (MDA-N) was over 100 µM.

In the case of `COc1cc(/C=C/C(=O)/C=C/c2cc(OC)c3c(c2)OCO3)cc2c1OCO2`, the GI50 (T-47D breast) is reported as 9.62 µM and the TGI (T-47D breast) is reported as over 100 µM.

Compound `CC1=C([Se]CC(OC(=O)CC[Se]c2ccccc2)C(=O)NC(C)(C)C)C(=O)c2ccccc2C1=O` (centres undefined) has a GI50 (T-47D breast) of 1.68 µM and a TGI (T-47D breast) of 3.88 µM.

In the case of `Cc1c2cnccc2c(C)c2c1c1cc(C#N)ccc1n2C`, the GI50 (T-47D breast) is reported as 0.303 µM.

`C=C(c1ccccc1)C1(O)CCCCC1N` (centres undefined) showed a TGI (M19-MEL melanoma) of over 100 µM, a TGI (KM20L2 colon) of over 100 µM and a TGI (DLD-1 colon) of over 100 µM. For the same compound, the TGI (DMS 114 small cell lung) was over 100 µM, the TGI (DMS 273 small cell lung) was over 100 µM and the TGI (LXFL 529 NSCLC) was over 100 µM.

`Cc1nc(C(N)=O)c(N)n1CCN1CCN(C(=O)CCCCCCCCCCNC2N=CNc3nc[nH]c32)CC1` (centres undefined) showed a TGI (M19-MEL melanoma) of over 100 µM, a TGI (KM20L2 colon) of over 100 µM and a TGI (DMS 114 small cell lung) of over 100 µM. The TGI (RXF-631 renal) was over 100 µM and the TGI (LXFL 529 NSCLC) was 71.6 µM.

With `Nc1ncnc2c1ncn2C1OC(CSCC(F)(F)F)C(O)C1O` (centres undefined) the TGI (M19-MEL melanoma) was over 100 µM, the TGI (KM20L2 colon) was over 100 µM and the TGI (DLD-1 colon) was over 100 µM. The TGI (DMS 273 small cell lung) was over 100 µM and the TGI (LXFL 529 NSCLC) was over 100 µM.

`CCSC1=NC2C(N(CC)C(=O)N2CC)N1/N=C/C=C/c1ccccc1[N+](=O)[O-]` (centres undefined) gave a GI50 (T-47D breast) of 2.59 µM and a TGI (T-47D breast) of over 82.1 µM.

`O=C1Nc2ccccc2C1(O)C/C(=N/O)c1ccc2ccccc2c1` (centres undefined) showed a TGI (M19-MEL melanoma) of over 100 µM, a TGI (KM20L2 colon) of over 100 µM and a TGI (DLD-1 colon) of over 100 µM. It also gave a TGI (DMS 114 small cell lung) of over 100 µM, a TGI (RXF-631 renal) of over 100 µM and a TGI (LXFL 529 NSCLC) of over 100 µM.

With `COc1cccc(-c2nc3cc(NC(=O)c4ccc(Cl)c(C#N)c4)ccc3o2)c1` the GI50 (T-47D breast) was 3.75 µM and the TGI (T-47D breast) was over 100 µM.

With `FC(F)(F)c1cccc(-c2nc3nc(Cl)c(Cl)nc3[nH]2)c1` the TGI (T-47D breast) was 12.9 µM and the TGI (MDA-N) was 32 µM.

For `CN(C)CCNC(=O)Cn1ccc(=O)c2cc([N+](=O)[O-])ccc21`, the TGI (T-47D breast) was over 100 µM and the TGI (MDA-N) was over 100 µM.

`COc1cc(Cl)cc(=O)c(O)c1OC` was tested, and the TGI (M19-MEL melanoma) was over 100 µM, the TGI (KM20L2 colon) was over 100 µM and the TGI (DLD-1 colon) was over 100 µM. For the same compound, the TGI (DMS 114 small cell lung) was 67.6 µM, the TGI (DMS 273 small cell lung) was over 100 µM and the TGI (LXFL 529 NSCLC) was over 100 µM.
